In ChEMBL document CHEMBL1133825, “3-D-QSAR/CoMFA and recognition models of benzimidazole derivatives at the 5-HT(4) receptor” (Bioorg Med Chem Lett, 2001):

Assays:
[1] = biological target: T1, 5-hydroxytryptamine receptor 4 (Rattus norvegicus, UniProt Q62758); assay: In vitro binding affinity to 5-hydroxytryptamine 4 receptor in rat striatum membrane; format: cell membranes
[2] = biological target: T1, 5-hydroxytryptamine receptor 4; assay: pKi against 5-hydroxytryptamine 4 receptor in rat striatum membrane; format: cell membranes

T1 sequence (Q62758 whole entry): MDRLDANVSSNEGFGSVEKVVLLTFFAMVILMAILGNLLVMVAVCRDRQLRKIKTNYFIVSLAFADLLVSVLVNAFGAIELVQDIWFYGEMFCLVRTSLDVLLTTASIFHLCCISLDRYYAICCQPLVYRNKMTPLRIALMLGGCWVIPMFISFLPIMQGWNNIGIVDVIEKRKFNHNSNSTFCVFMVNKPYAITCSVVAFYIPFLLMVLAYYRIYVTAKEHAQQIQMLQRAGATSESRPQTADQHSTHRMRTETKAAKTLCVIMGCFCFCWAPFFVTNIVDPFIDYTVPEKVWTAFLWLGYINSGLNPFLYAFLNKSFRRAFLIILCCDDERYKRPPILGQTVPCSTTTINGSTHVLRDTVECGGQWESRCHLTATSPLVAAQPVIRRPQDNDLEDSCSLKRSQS

| SMILES | Ki [1] | Ki [2] |
| --- | --- | --- |
| CC(C)CN1CCC(CNC(=O)c2cc(Cl)cc3[nH]cnc23)CC1 | 0.29 nM | 0.288 nM |
| CN1CCC(OC(=O)c2cccc3nc[nH]c23)CC1 | > 10000 nM | > 10000 nM |
| CC(C)CN1CCC(CNC(=O)c2cc(Cl)cc3c2ncn3Cc2ccccc2)CC1 | 69.2 nM | 69.2 nM |
| CCCCN1CCC(COC(=O)c2cc(Cl)cc3[nH]cnc23)CC1 | 2.9 nM | 2.88 nM |
| CCCCN1CCC(CNC(=O)c2cc(Br)c(N)c3nc[nH]c23)CC1 | 27.8 nM | 27.5 nM |
| CS(=O)(=O)NCCN1CCC(CNC(=O)c2cccc3[nH]cnc23)CC1 | 11.4 nM | 11.5 nM |
| CS(=O)(=O)NCCN1CCC(CNC(=O)c2cc(Cl)cc3[nH]cnc23)CC1 | 0.11 nM | 0.11 nM |
| CCCCN1CCC(CNC(=O)c2cc(Br)c([N+](=O)[O-])c3[nH]cnc23)CC1 | 48.2 nM | 47.9 nM |
| CCN1CCC(NC(=O)c2cccc3[nH]cnc23)CC1 | > 1000 nM | > 1000 nM |
| CCCN1CCC(NC(=O)c2cccc3nc[nH]c23)CC1 | > 1000 nM | > 1000 nM |
| CS(=O)(=O)NCCN1CCC(COC(=O)c2cccc3nc[nH]c23)CC1 | 26.1 nM | 26.3 nM |
| CCCCN1CCC(NC(=O)c2cccc3nc[nH]c23)CC1 | 290 nM | 288 nM |
| CCCCN1CCC(COC(=O)c2cccc3nc[nH]c23)CC1 | 24.6 nM | 24.5 nM |
| CS(=O)(=O)NCCN1CCC(COC(=O)c2cc(Cl)cc3[nH]cnc23)CC1 | 2.3 nM | 2.29 nM |
| CCCCN1CCC(CNC(=O)c2cc(Cl)cc3[nH]cnc23)CC1 | 0.32 nM | 0.324 nM |
| CCCCN1CCC(CNC(=O)c2cc(Br)cc3[nH]cnc23)CC1 | 0.64 nM | 0.646 nM |
| CCCCN1CCC(CNC(=O)c2ccc(N)c3[nH]cnc23)CC1 | 115 nM | 115 nM |
| CCCCN1CCC(CNC(=O)c2cc(Cl)c(N)c3[nH]cnc23)CC1 | 22.4 nM | 22.4 nM |
| CC(C)CN1CCC(CNC(=O)c2cc(Cl)cc3c2ncn3C)CC1 | 2.2 nM | 2.19 nM |
| CCCCCN1CCC(CNC(=O)c2cc(Cl)cc3[nH]cnc23)CC1 | 0.54 nM | 0.537 nM |
| CCCCN1CCC(CNC(=O)c2cc(Cl)c([N+](=O)[O-])c3nc[nH]c23)CC1 | 44.6 nM | 44.7 nM |
| CCCCN1CCC(CNC(=O)c2cccc3[nH]cnc23)CC1 | 13.7 nM | 13.8 nM |
